Key:
14-3-3σ (Homo sapiens) = target: T1, 14-3-3σ (Homo sapiens); assay: SPR, PEAK tandem peptides binding to immobilised 14-3-3σ; conditions: peptide analyte over amine-coupled 14-3-3σ (CM5); Biacore S200, HBS-TP pH 7.4, 20 °C; steady-state 1:1 fit; mean ± S.E.M.; read-out: SPR KD, 14-3-3σ (sigma)
T1 construct: 14-3-3ς (UniProt P63104-1; residues 1–245); 8-His tag with TEV protease cleavage site (N); made in house; host or cells: E. coli C41 (DE3)
Experimental: (§1) Purified […]3 was diluted to 5 μg ml^-1 in 10 mM sodium acetate pH 4.0 and amine coupled at 25 °C to a Series S CM5 sensor chip, in HBS-N running buffer (20 mM HEPES pH 7.4, 150 mM NaCl) to a final immobilization level of 1100-1400 response units (RU), followed by surface deactivation using 1 M ethanolamine. A blank activation/deactivation was used for the reference surface. […] Samples were injected in a multi-cycle run (flow rate 30 μl min^-1, contact time of 60 s, dissociation 120 s) without regeneration. Sensorgrams were double referenced, and steady-state binding data fitted using a 1:1 binding model using Biacore S200 Evaluation Software (Cytiva, v. 1.1). […] Representative sensorgrams and fitted dissociation constant (KD) values, depicted as mean ± S.E.M.

14-3-3ε = target: T2, 14-3-3ε (Homo sapiens, UniProt P62258); assay: SPR, PEAK tandem peptides binding to immobilised 14-3-3ε; conditions: peptide analyte over amine-coupled 14-3-3ε (CM5); Biacore S200, HBS-TP pH 7.4, 20 °C; steady-state 1:1 fit; mean ± S.E.M.; read-out: SPR KD, 14-3-3ε (epsilon)
T2 construct: 14-3-3ε (UniProt P62258-1; residues 1–255); 8-His tag with TEV protease cleavage site (N); made in house; host or cells: E. coli C41 (DE3)
T2 sequence (P62258 1-255): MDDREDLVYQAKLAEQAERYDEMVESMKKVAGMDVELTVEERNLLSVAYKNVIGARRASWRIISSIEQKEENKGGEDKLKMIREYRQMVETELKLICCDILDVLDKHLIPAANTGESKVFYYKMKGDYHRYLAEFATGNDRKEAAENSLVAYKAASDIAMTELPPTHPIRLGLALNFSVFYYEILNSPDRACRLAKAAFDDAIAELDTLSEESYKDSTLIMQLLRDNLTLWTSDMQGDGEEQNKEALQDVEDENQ
Experimental: Purified […]3 was diluted to 5 μg ml^-1 in 10 mM sodium acetate pH 4.0 and amine coupled at 25 °C to a Series S CM5 sensor chip, in HBS-N running buffer (20 mM HEPES pH 7.4, 150 mM NaCl) to a final immobilization level of 1100-1400 response units (RU), followed by surface deactivation using 1 M ethanolamine. A blank activation/deactivation was used for the reference surface. […] PEAK PRM peptides: […] Samples were injected in a multi-cycle run (flow rate 30 μl min^-1, contact time of 60 s, dissociation 120 s) without regeneration. Sensorgrams were double referenced, and steady-state binding data fitted using a 1:1 binding model using Biacore S200 Evaluation Software (Cytiva, v. 1.1). […] Representative sensorgrams and fitted dissociation constant (KD) values, depicted as mean ± S.E.M.

14-3-3η = target: T3, 14-3-3η (Homo sapiens, UniProt Q04917); assay: SPR, PEAK tandem peptides binding to immobilised 14-3-3η; conditions: peptide analyte over amine-coupled 14-3-3η (CM5); Biacore S200, HBS-TP pH 7.4, 20 °C; steady-state 1:1 fit; mean ± S.E.M.; read-out: SPR KD, 14-3-3η (eta)
T3 construct: 14-3-3η (UniProt Q04917-1; residues 1–246); 8-His tag with TEV protease cleavage site (N); made in house; host or cells: E. coli C41 (DE3)
T3 sequence (Q04917 1-246): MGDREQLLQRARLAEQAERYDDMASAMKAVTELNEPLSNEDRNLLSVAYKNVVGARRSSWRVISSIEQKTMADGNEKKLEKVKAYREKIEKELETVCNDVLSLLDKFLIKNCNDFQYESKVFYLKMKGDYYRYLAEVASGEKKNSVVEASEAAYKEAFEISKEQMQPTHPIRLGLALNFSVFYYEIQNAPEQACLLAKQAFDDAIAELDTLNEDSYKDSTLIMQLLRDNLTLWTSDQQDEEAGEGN
Experimental: as §1

14-3-3γ = target: T4, 14-3-3γ (Homo sapiens, UniProt P61981); assay: SPR, PEAK peptides binding to immobilised 14-3-3γ; conditions: peptide analyte over amine-coupled 14-3-3γ (CM5); Biacore S200, HBS-TP pH 7.4, 20 °C; steady-state 1:1 fit; mean ± S.E.M.; read-out: SPR KD, 14-3-3γ (gamma)
T4 construct: 14-3-3γ (UniProt P61981-1; residues 1–247); 8-His tag with TEV protease cleavage site (N); made in house; host or cells: E. coli C41 (DE3)
T4 sequence (P61981 1-247): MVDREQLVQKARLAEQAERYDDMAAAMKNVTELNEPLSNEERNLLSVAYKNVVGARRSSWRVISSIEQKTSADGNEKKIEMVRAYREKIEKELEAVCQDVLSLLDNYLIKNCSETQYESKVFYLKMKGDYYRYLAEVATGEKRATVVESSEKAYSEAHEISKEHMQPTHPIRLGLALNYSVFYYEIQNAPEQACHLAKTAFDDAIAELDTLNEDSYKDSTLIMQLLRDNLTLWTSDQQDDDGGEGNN
Experimental: as §1

CrkII^SH2 = target: T5, CrkII^SH2 (Homo sapiens, UniProt P46108); assay: SPR, CrkII SH2 binding to immobilised PEAK proteins; conditions: interactor as analyte over biotinylated PEAK protein (biotin CAPture); Biacore 8K+, HBS-TP with 500 mM NaCl, 20 °C; steady-state fit; mean ± S.E.M. (N = 3)
T5 construct: CrkII^SH2; UniProt P46108-1, residues 6–120; 8-His tag with TEV protease cleavage site (N); made in house; host or cells: E. coli C41 (DE3)
Experimental: (§2) SPR binding studies of PEAK PRM peptides to CrkII^NSH3 were performed using a Biacore S200 Instrument (Cytiva). Purified CrkII^NSH3 was diluted to 5 µg ml^−1 in 10 mM sodium acetate pH 4.0 and amine coupled at 25 °C to a Series S CM5 sensor chip, in HBS-N running buffer (20 mM HEPES pH 7.4, 150 mM NaCl) to a final immobilization level of 1100–1400 response units (RU), followed by surface deactivation using 1 M ethanolamine. A blank activation/deactivation was used for the reference surface. Peptide binding studies were performed at 20 °C in HBS-TP running buffer (20 mM HEPES pH 7.4, 150 mM NaCl, 1 mM TCEP, 0.005% (v/v) Tween-P20). […] Peptide stocks were further diluted to in running buffer to 10 or 20 µM and prepared as a 11-point concentration series (2-fold serial dilution, […] for PEAK PRM peptides, or 20 µM–20 nM for PEAK tandem motif peptides). Samples were injected in a multi-cycle run (flow rate 30 µl min^−1, contact time of 60 s, dissociation 120 s) without regeneration. Sensorgrams were double referenced, and steady-state binding data fitted using a 1:1 binding model using Biacore S200 Evaluation Software (Cytiva, v. 1.1).
(§3) SPR binding studies of PEAK proteins to full length CrkII/Grb2 and sub-domains were performed using a Biacore 8K+ Instrument (Cytiva) and analyzed using Biacore Insight Evaluation Software (v. 3.0.12.15655). […] Binding studies and steady-state data analysis were performed as described for CrkII^NSH3 with the inclusion of an additional surface regeneration step (60 s injection of 1 M NaCl) between cycles.

CrkII^FL monomer = target: T6, CrkII^FL monomer (Homo sapiens, UniProt P46108); assay: SPR, CrkII FL monomer binding to immobilised PEAK proteins; conditions: interactor as analyte over biotinylated PEAK protein (biotin CAPture); Biacore 8K+, HBS-TP with 500 mM NaCl, 20 °C; steady-state fit; mean ± SD (N = 2)
T6 construct: full length CrkII (CrkII^FL; UniProt P46108-1, residues 1–330); 8-His tag with TEV protease cleavage site (N); made in house; host or cells: E. coli C41 (DE3)
Experimental: as §2
(§4) SPR binding studies of PEAK proteins to full length CrkII/Grb2 and sub-domains were performed using a Biacore 8K+ Instrument (Cytiva) and analyzed using Biacore Insight Evaluation Software (v. 3.0.12.15655). […]

CrkII^FL dimer = target: T7, CrkII^FL dimer (Homo sapiens, UniProt P46108); assay: SPR, CrkII FL dimer binding to immobilised PEAK proteins; conditions: interactor as analyte over biotinylated PEAK protein (biotin CAPture); Biacore 8K+, HBS-TP with 500 mM NaCl, 20 °C; steady-state fit; mean ± SD (N = 2)
T7 construct: full length CrkII (CrkII^FL; UniProt P46108-1, residues 1–330); 8-His tag with TEV protease cleavage site (N); made in house; host or cells: E. coli C41 (DE3)
Experimental: as §2, §4

14-3-3ɣ = assay: SPR, 14-3-3ɣ binding to immobilised PEAK proteins; design: species or system human; conditions: 14-3-3ɣ analyte 0.46–1000 nM, multi-cycle, over immobilised biotinylated PEAK protein; Biacore 8K+, 20 °C; KD only an estimate (bivalent analyte model); N = 3
Experimental: PEAK proteins and adapters proteins (full length or individual domains) were biotinylated using EZ-Link™ NHS-PEG4-Biotin (Thermo Fisher) at a 1:1 molar ratio (100 µM) for 1 h at room temperature, then excess biotin was removed by buffer exchange using a Zeba™ Spin Desalting Column (Thermo Fisher) into HBS-T buffer (20 mM HEPES pH 7.4, 150 mM NaCl, 1 mM TCEP).
SPR binding studies of PEAK proteins to full length CrkII/Grb2 and sub-domains were performed using a Biacore 8K+ Instrument (Cytiva) and analyzed using Biacore Insight Evaluation Software (v. 3.0.12.15655). […] Biotinylated PEAK proteins (with or without Src phosphorylation; 500 nM in HBS-TP) were immobilized using a biotin CAPture kit (Cytiva) in HBS-TP running buffer at 20 °C. Binding studies and steady-state data analysis were performed as described for CrkII^NSH3 with the inclusion of an additional surface regeneration step (60 s injection of 1 M NaCl) between cycles. For Grb2^FL, Grb2^SH2, CrkII^SH2, CrkII^FL monomer and CrkII^FL dimer, to reduce nonspecific interactions the HBS-TP running buffer was supplemented with additional NaCl to a final concentration of 500 mM.
Binding studies for 14-3-3ɣ were undertaken in the same way in multi cycle mode (8 point, 3-fold serial dilution series, 0.46–1000 nM, 60 s contact time, 300 s dissociation).

CrkII^NSH3 = target: T8, CrkII^NSH3 (Homo sapiens, UniProt P46108); assay: SPR, CrkII NSH3 binding to immobilised PEAK proteins; conditions: read-out: CrkII NSH3 SPR KD; interactor as analyte over biotinylated PEAK protein captured with biotin CAPture kit; Biacore 8K+, HBS-TP, 20 °C; steady-state fit; mean ± SD (N = 2); read-out: CrkII-SH2 SPR KD
T8 construct: CrkII^NSH3; UniProt P46108-1, residues 134–191; 8-His tag with TEV protease cleavage site (N); made in house; host or cells: E. coli C41 (DE3)
Experimental: as §2, §3

Grb2^FL = conditions: isothermal titration calorimetry, shown previously; read-out: ITC KD, Grb2^FL; cited from earlier work

T1 sequence (P63104 whole entry, the tested form may be a part): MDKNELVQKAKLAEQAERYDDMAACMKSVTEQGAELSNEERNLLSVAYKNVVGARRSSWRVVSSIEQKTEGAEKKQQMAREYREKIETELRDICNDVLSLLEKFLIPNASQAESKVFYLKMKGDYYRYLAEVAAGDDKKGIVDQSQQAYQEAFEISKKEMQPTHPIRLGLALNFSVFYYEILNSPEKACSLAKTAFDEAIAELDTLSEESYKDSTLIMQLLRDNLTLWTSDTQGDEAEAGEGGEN
T5 sequence (P46108 6-120): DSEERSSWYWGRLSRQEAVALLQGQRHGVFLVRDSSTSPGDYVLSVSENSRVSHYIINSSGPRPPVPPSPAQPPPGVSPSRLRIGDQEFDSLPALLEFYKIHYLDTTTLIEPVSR
T8 sequence (P46108 134-191): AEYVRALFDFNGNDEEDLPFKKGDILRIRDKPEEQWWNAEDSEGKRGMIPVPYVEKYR
T7 sequence (P46108 whole entry, the tested form may be a part): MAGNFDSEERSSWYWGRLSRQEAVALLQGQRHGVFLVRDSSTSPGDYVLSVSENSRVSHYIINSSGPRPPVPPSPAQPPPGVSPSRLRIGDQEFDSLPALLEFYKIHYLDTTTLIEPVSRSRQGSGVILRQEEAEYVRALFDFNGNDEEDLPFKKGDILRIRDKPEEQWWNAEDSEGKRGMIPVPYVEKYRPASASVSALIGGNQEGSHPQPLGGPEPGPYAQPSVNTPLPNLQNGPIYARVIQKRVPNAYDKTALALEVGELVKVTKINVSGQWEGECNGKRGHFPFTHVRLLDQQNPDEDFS
T6 sequence (P46108 whole entry, the tested form may be a part): as above

Row | Kd (14-3-3σ (Homo sapiens)) | Kd (14-3-3ε) | Kd (14-3-3η) | Kd (14-3-3γ) | Molecule | SPR KD, CrkII-SH2 (CrkII^SH2) | Kd (CrkII^FL monomer) | Kd (CrkII^FL dimer) | SPR KD, 14-3-3ɣ (14-3-3ɣ) | Kd (CrkII^NSH3) | Kd (Grb2^FL)
1 | > 100 µM | > 100 µM | > 100 µM | > 100 µM | CC[C@H](C)[C@H](NC(=O)[C@H](CCCCN)NC(=O)[C@H](CCCCN)NC(=O)[C@H](CCC(N)=O)NC(=O)[C@@H]1CCCN1C(=O)[C@H](CC(C)C)NC(=O)[C@@H]1CCCN1C(=O)[C@@H]1CCCN1C(=O)[C@@H]1CCCN1C(C)=O)C(=O)N[C@H](C(=O)N[C@@H](CO)C(=O)N[C@@H](CCCNC(=N)N)C(=O)N[C@@H](C)C(=O)N[C@@H](C)C(=O)N[C@@H](CO)C(=O)N[C@@H](CO)C(=O)N1CCC[C@H]1C(=O)N[C@@H](CC(=O)O)C(=O)NCC(=O)N[C@@H](Cc1ccccc1)C(N)=O)C(C)C (single isomer, unassigned) [PEAK2^tandem] | – | – | – | – | – | –
2 | – | – | – | – | PEAK3-FL E.coli (+ Src phosphorylation): E. coli PEAK3 (1–473) phosphorylated with recombinant Src kinase | No binding | 2.6 µM | 2.11 µM | No binding | 13.1 µM | –
3 | – | – | – | – | CC(=O)N[C@H](C(=O)N[C@@H](Cc1ccc(OP(=O)(O)O)cc1)C(=O)N[C@@H](CO)C(=O)N[C@@H](CC(N)=O)C(=O)N[C@@H](CC(C)C)C(=O)NCC(=O)N[C@@H](CCC(N)=O)C(N)=O)[C@@H](C)O [SH2-pY peptide] | – | – | – | – | – | 2.6 µM
4 | > 100 µM | > 100 µM | > 100 µM | > 100 µM | CC[C@H](C)[C@H](NC(=O)[C@H](CCSC)NC(=O)[C@H](CCCCN)NC(=O)[C@H](CCCCN)NC(=O)[C@@H]1CCCN1C(=O)[C@H](CC(C)C)NC(=O)[C@@H]1CCCN1C(=O)[C@@H]1CCCN1C(=O)[C@@H]1CCCN1C(C)=O)C(=O)N[C@H](C(=O)N[C@@H](CCCNC(=N)N)C(=O)N[C@@H](C)C(=O)N[C@@H](CC(N)=O)C(=O)N[C@H](C(=O)N[C@@H](CCC(=O)O)C(=O)N1CCC[C@H]1C(=O)N[C@H](C(=O)N[C@@H](CO)C(=O)N[C@@H](CCCCN)C(=O)N[C@@H](CC(=O)O)C(N)=O)[C@@H](C)CC)[C@@H](C)O)[C@@H](C)CC (single isomer, unassigned) [PEAK1^tandem] | – | – | – | – | – | –
